Tested on: PA-specific Ab responses
Parameters: species or system mice
Conditions: mouse, in vivo, ip

Cc1c(-c2ccnn2C)cc(C(=O)NCc2ccc(S(C)(=O)=O)cn2)c(=O)n1-c1cccc(C(F)(F)F)c1 [Alvelestat, alvelestat]
High affinity PA-specific serum IgG1 and IgA Ab responses: promotes high affinity Abs

Reference: patent US20180360953A1 (priority 2015, published 2018)
